Measurements as given in publication PMC8498006 (Advances in Redox Research, 2021).

How the values were obtained:
[1] = target: SARS-CoV-2 M^pro (MBP-tagged main protease) (Severe acute respiratory syndrome coronavirus 2, UniProt P0DTD1); experiment: biochemical; settings: for suppressive effect on the protease activity at 20 µM: 20 µM phytochemical, 0.5 µM enzyme, 37°C 30 min
[2] = target: T1, SARS-CoV-2 M^pro (MBP-cleaved) (Severe acute respiratory syndrome coronavirus 2, UniProt P0DTD1); experiment: Intact MS of M^pro after incubation with phytochemicals; format: binding; settings: 0.5 µM enzyme; for covalent adduct on M^pro by intact MS: 1 µM phytochemical, 37°C 30 min
[3] = target: T1, SARS-CoV-2 M^pro (MBP-cleaved); experiment: Enzyme activity of MBP-cleaved M^pro with EGCG/myricetin, with or without GSH; format: biochemical; settings: 0.5 µM enzyme
[4] = target: T1, SARS-CoV-2 M^pro (MBP-cleaved); experiment: Free thiols in the enzyme by biotin incorporation; settings: iodoacetyl-LC-biotin labelling
[5] = target: T1, SARS-CoV-2 M^pro (MBP-cleaved); experiment: Quinone detection on blotted membrane by redox-cycling; format: binding; settings: 2.5 µM phytochemical, 1 mM GSH

C=CCN=C=S [AITC, Allyl isothiocyanate] gave an IC50 [1] of 33.3 µM.

With S=C=NCc1ccccc1 [BITC, benzyl isothiocyanate] the IC50 [1] was 4.5 µM and the “suppressive effect on the protease activity at 20 µM” value (“suppressive effect” below) [1] was “considerably inhibited”.

S=C=NCCc1ccccc1 [PEITC, phenethyl isothiocyanate] showed an IC50 [1] of 14.2 µM.

With O=c1cc(-c2ccccc2)oc2cc(O)c(O)c(O)c12 [baicalein] the “covalent adduct on M^pro by intact MS” value [2] was “covalent adducts were not observed”.

In the case of OC[C@H]1O[C@@H](Oc2cc3c(O)cc(O)cc3[o+]c2-c2ccc(O)c(O)c2)[C@H](O)[C@@H](O)[C@@H]1O.[Cl-] [cyanidine-3-glucoside, Cyanidine-3-glucoside chloride], the “suppressive effect” value [1] is reported as “did not show suppressive effect”.

For O=c1c(O)c(-c2ccc(O)cc2)oc2c(O)c(O)cc(O)c12 [herbacetin], the IC50 [1] was 19.2 µM and the “covalent adduct on M^pro by intact MS” value [2] was “covalent adducts were not observed”.

O=c1c(O)c(-c2cc(O)c(O)c(O)c2)oc2cc(O)cc(O)c12 [myricetin] was tested, and the “enzyme activity with increasing concentration” value ([3]; 0–5 µM, substrate reaction 15 min) was “decreased accordingly”, the “enzyme activity loss in the presence of GSH” value ([3]; 2.5 µM phytochemical, 1 mM GSH, 30 min) was “canceled” and the “suppressive effect” value [1] was “considerably inhibited”. The “dose dependence of adduction by intact MS” value ([2]; 0–5 µM) was “dose-dependently observed”, the “covalent adduct on M^pro by intact MS” value [2] was “One or two molecule(s)” and the “free thiols in the M^pro with increasing concentration” value [4] was “decreased”. The “quinone staining in the presence of GSH” value [5] was “canceled”.

With COc1ccc(-c2cc(=O)c3c(O)c(OC)c(O[C@@H]4O[C@H](CO[C@@H]5O[C@@H](C)[C@H](O)[C@@H](O)[C@H]5O)[C@@H](O)[C@H](O)[C@H]4O)cc3o2)cc1 [pectolinarin] the “suppressive effect” value [1] was “did not show suppressive effect”.

With Oc1cc(O)cc(/C=C/c2ccc(O)c(O)c2)c1 [piceatannol] the IC50 [1] was 13.8 µM and the “covalent adduct on M^pro by intact MS” value [2] was “One or two molecule(s)”.

For O=c1c(O)c(-c2ccc(O)c(O)c2)oc2cc(O)cc(O)c12 [quercetin], the “suppressive effect” value [1] was “did not show suppressive effect”.

With C[C@@H]1O[C@@H](OC[C@H]2O[C@@H](Oc3c(-c4ccc(O)c(O)c4)oc4cc(O)cc(O)c4c3=O)[C@H](O)[C@@H](O)[C@@H]2O)[C@H](O)[C@H](O)[C@H]1O [rutin, quercetin-3-O-rutinoside] the “suppressive effect” value [1] was “did not show suppressive effect”.

For O=c1c(O)cc([C@H]2Oc3cc(O)cc(O)c3C[C@H]2O)cc2c([C@H]3Oc4cc(O)cc(O)c4C[C@H]3O)cc(O)c(O)c12 [theaflavin], the IC50 [1] was 6.1 µM, the “suppressive effect” value [1] was “considerably inhibited” and the “covalent adduct on M^pro by intact MS” value [2] was “One or two molecule(s)”.

For myricitrin, the “covalent adduct on M^pro by intact MS” value [2] was “covalent adducts were not observed”.
